Experimental data reported in patent US20160185797A1, “ALKYNYL ALCOHOLS AND METHODS OF USE” (Genentech, Inc., priority 2013, published 2016).

Key:
[1] = molecular target: T1, nuclear factor-kappa B (NF-kB)-inducing kinase (NIK) (Homo sapiens, UniProt Q99558); experiment: NIK enzyme inhibition assay (Transcreener ADP fluorescence polarization, NIK ADP-FP); format: biochemical
T1 construct: made in house; host or cells: baculovirus-infected insect cells

[2] = system: p52 (NF-kB2) nuclear translocation in HeLa cells; experiment: p52 (NF-kB2) nuclear translocation assay in HeLa cells, anti-lymphotoxin beta receptor antibody stimulated (non-classical NF-kB signaling), high content imaging; format: cell-based; settings: Homo sapiens, 100 ng/mL anti-lymphotoxin beta receptor antibody for 5 hours, read-out: p52 HeLa Transloc Assay (IC50)
Experimental: (§1) Several assays were developed to profile the cellular activities of NIK inhibitors.
(§2) (2) A second set of cell assay are used to define the selectivity of NIK inhibitors toward inhibition of classical vs. non-classical NF-kB signaling and rely on quantification of the nuclear translocation of p52 (NF-kB2) and REL-A (p65) using high content cellular imaging. For the p52 (non-classical NF-kB signaling) nuclear translocation assay, HeLa cells are treated with different concentrations of compounds (0.2% DMSO final) in medium containing 10% fetal bovine serum and then stimulated with 100 ng/mL of an anti-lymphotoxin beta receptor antibody (R&D Systems) for 5 hours. In the REL-A nuclear translocation assay, HeLa cells are incubated with compounds (0.2% DMSO final) for 4.5 hours in medium containing 10% fetal bovine serum before stimulating them with 10 ng/mL tumor necrosis factor (TNF)-α (R&D Systems) for 30 minutes. Cells are fixed with 4% paraformaldehyde, permeabilized by adding 0.1% Triton X-100 in phosphate buffered saline, and then are incubated with either 2 ug/mL anti-p52 antibody (Millipore) or 400 ng/mL anti-REL-A (p65) antibody (Santa Cruz Biotechnology). Finally, the cells are incubated with an Alexa488-labeled secondary antibody (Invitrogen) and DRAQ5 DNA stain (Biostatus). Imaging is carried out using an Opera reader (Perkin Elmer) and data are analyzed with the aid of Acapella software (Perkin Elmer). The p52 or REL-Atranslocation into the nucleus is quantified by the ratio of the nuclear to cytoplasmic signal intensity. […] The compounds in listed in Table 1 have the corresponding inhibitory value (IC50 in micromolar) for NIK p52 Translocation Assay as set forth in Table 2.
(§3) The compounds in listed in Table 1 have the corresponding inhibitory values (IC50 in micromolar) for the Translocation Assays as set forth in Table 2.

[3] = system: REL-A (p65) nuclear translocation in HeLa cells; experiment: REL-A (p65) nuclear translocation assay in HeLa cells, TNF-α stimulated (classical NF-kB signaling), high content imaging; format: cell-based; settings: Homo sapiens, HeLa, compound 4.5 h, then 10 ng/mL TNF-α for 30 minutes, read-out: REL-A HeLa Transloc Assay (IC50)
Experimental: as §1, §2, §3

T1 sequence (Q99558 whole entry): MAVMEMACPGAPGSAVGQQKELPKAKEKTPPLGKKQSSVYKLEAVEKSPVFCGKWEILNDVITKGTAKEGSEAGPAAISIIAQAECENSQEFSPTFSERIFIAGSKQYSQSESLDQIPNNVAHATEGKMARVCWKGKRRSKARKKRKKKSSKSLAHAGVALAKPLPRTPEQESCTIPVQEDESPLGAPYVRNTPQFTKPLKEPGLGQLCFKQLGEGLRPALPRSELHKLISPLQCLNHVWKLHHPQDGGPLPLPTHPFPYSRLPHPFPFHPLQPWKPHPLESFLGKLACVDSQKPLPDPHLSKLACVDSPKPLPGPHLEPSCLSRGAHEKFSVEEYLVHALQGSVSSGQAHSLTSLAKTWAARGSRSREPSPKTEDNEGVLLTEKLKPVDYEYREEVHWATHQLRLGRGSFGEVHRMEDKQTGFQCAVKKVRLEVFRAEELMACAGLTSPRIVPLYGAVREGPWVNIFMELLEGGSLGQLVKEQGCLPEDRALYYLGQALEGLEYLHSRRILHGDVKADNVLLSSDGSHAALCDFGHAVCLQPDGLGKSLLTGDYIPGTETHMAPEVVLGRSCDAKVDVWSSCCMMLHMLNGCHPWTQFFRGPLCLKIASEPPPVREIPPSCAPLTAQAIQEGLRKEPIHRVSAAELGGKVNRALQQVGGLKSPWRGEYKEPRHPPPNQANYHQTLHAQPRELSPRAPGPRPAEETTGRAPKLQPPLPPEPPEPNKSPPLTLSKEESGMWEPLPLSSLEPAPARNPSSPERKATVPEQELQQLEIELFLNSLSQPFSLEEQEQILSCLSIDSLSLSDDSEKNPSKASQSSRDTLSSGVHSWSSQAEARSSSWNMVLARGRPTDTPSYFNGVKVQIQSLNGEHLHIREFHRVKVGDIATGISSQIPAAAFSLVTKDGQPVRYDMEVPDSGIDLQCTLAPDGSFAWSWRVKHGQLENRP

SMILES: CN1CC[C@@](O)(C#Cc2cccc(-c3nc(C(N)=O)ccc3F)c2)C1=O [Example 15, 5-fluoro-6-[3-[2-[(3R)-3-hydroxy-1-methyl-2-oxo-pyrrolidin-3-yl]ethynyl]phenyl] pyridine-2-carboxamide]
- Ki [1]: 1.21 nM
- IC50 [2]: 630 nM
- IC50 [3]: > 20000 nM

SMILES: CC(C)c1cc(C(N)=O)nc(-c2cccc(C#C[C@]3(O)CCN(C)C3=O)c2)n1 [Example 16, 2-[3-[2-[(3R)-3-hydroxy-1-methyl-2-oxo-pyrrolidin-3-yl]ethynyl]phenyl]-6-isopropyl-pyrimidine-4-carboxamide]
- Ki [1]: 0.54 nM
- IC50 [2]: 191 nM
- IC50 [3]: > 20000 nM

SMILES: CN1CC[C@@](O)(C#Cc2cccc(-c3nc(C(N)=O)cc(C(F)(F)F)n3)c2)C1=O [Example 17, 2-[3-[2-[(3R)-3-hydroxy-1-methyl-2-oxo-pyrrolidin-3-yl]ethynyl]phenyl]-6-(trifluoromethyl)pyrimidine-4-carboxamide]
- Ki [1]: 0.84 nM
- IC50 [2]: 225 nM
- IC50 [3]: > 20000 nM

SMILES: COCC1CCCN1c1cc(C(N)=O)nc(-c2cccc(C#C[C@]3(O)CCN(C)C3=O)c2)n1 (stereo partly drawn) [Example 18, 2-[3-[2-[(3R)-3-hydroxy-1-methyl-2-oxo-pyrrolidin-3-yl]ethynyl]phenyl]-6-[2-(methoxymethyl)pyrrolidin-1-yl]pyrimidine-4-carboxamide]
- Ki [1]: 2.19 nM
- IC50 [2]: 39 nM
- IC50 [3]: > 20000 nM

SMILES: CON(C)c1cc(C(N)=O)nc(-c2cccc(C#C[C@]3(O)CCN(C)C3=O)c2)n1 [Example 19, 2-[3-[2-[(3R)-3-hydroxy-1-methyl-2-oxo-pyrrolidin-3-yl]ethynyl]phenyl]-6-[methoxy (methyl)amino]pyrimidine-4-carboxamide]
- Ki [1]: 1.1 nM
- IC50 [2]: 45.5 nM
- IC50 [3]: > 20000 nM

SMILES: CN1CC[C@@](O)(C#Cc2cccc(-c3nc(C(N)=O)cc(N4CCc5ccccc54)n3)c2)C1=O [Example 20, 2-[3-[2-[(3R)-3-hydroxy-1-methyl-2-oxo-pyrrolidin-3-yl]ethynyl]phenyl]-6-indolin-1-yl-pyrimidine-4-carboxamide]
- Ki [1]: 0.79 nM
- IC50 [2]: 374 nM
- IC50 [3]: 19100 nM

SMILES: CN1CC[C@@](O)(C#Cc2cccc(-c3nc(C(N)=O)cc(N4CCCC45COC5)n3)c2)C1=O [Example 21, 2-[3-[2-[(3R)-3-hydroxy-1-methyl-2-oxo-pyrrolidin-3-yl]ethynyl]phenyl]-6-(2-oxa-8-azaspiro[3.4]octan-8-yl) pyrimidine-4-carboxamide]
- Ki [1]: 1.2 nM
- IC50 [2]: 84.2 nM
- IC50 [3]: > 20000 nM

SMILES: C[C@@H]1CCN1c1cc(C(N)=O)nc(-c2cccc(C#C[C@]3(O)CCN(C)C3=O)c2)n1 [Example 22, 2-[3-[2-[(3R)-3-hydroxy-1-methyl-2-oxo-pyrrolidin-3-yl]ethynyl]phenyl]-6-[(2R)-2-methylazetidin-1-yl]pyrimidine-4-carboxamide]
- Ki [1]: 1.14 nM
- IC50 [2]: 85 nM
- IC50 [3]: > 20000 nM

SMILES: C[C@H]1CCN1c1cc(C(N)=O)nc(-c2cccc(C#C[C@]3(O)CCN(C)C3=O)c2)n1 [Example 23, 2-[3-[2-[(3R)-3-hydroxy-1-methyl-2-oxo-pyrrolidin-3-yl]ethynyl]phenyl]-6-[(2S)-2-methylazetidin-1-yl] pyrimidine-4-carboxamide]
- Ki [1]: 1.48 nM
- IC50 [2]: 96.1 nM
- IC50 [3]: > 20000 nM

SMILES: CN1CC[C@@](O)(C#Cc2cccc(-c3nc(C(N)=O)cc(N4CC[C@@H]4c4cccs4)n3)c2)C1=O [Example 26, 2-[3-[2-[(3R)-3-hydroxy-1-methyl-2-oxo-pyrrolidin-3-yl]ethynyl]phenyl]-6-[(2R)-2-(2-thienyl)azetidin-1-yl] pyrimidine-4-carboxamide]
- Ki [1]: 4.85 nM
- IC50 [2]: 110 nM
- IC50 [3]: > 20000 nM

SMILES: CN1CC[C@@](O)(C#Cc2cccc(-c3nc(C(N)=O)cc(N4CC[C@H]4c4cccs4)n3)c2)C1=O [Example 27, 2-[3-[2-[(3R)-3-hydroxy-1-methyl-2-oxo-pyrrolidin-3-yl]ethynyl]phenyl]-6-[(2S)-2-(2-thienyl)azetidin-1-yl]pyrimidine-4-carboxamide]
- Ki [1]: 3.34 nM
- IC50 [2]: 87.2 nM
- IC50 [3]: > 20000 nM

SMILES: CC(C)C[C@@H]1CCCN1c1cc(C(N)=O)nc(-c2cccc(C#C[C@]3(O)CCN(C)C3=O)c2)n1 [Example 28, 2-[3-[2-[(3R)-3-hydroxy-1-methyl-2-oxo-pyrrolidin-3-yl]ethynyl]phenyl]-6-[(2S)-2-isobutylpyrrolidin-1-yl] pyrimidine-4-carboxamide]
- Ki [1]: 2.38 nM
- IC50 [2]: 229 nM
- IC50 [3]: > 20000 nM

SMILES: CN1CC[C@@](O)(C#Cc2cccc(-c3nc(N[C@@H]4CCOC4)cc(C(N)=O)n3)c2)C1=O [Example 31, 2-[3-[2-[(3R)-3-hydroxy-1-methyl-2-oxo-pyrrolidin-3-yl]ethynyl]phenyl]-6-[[(3R)-tetrahydrofuran-3-yl]amino] pyrimidine-4-carboxamide]
- Ki [1]: 0.93 nM
- IC50 [2]: 479 nM
- IC50 [3]: > 20000 nM

SMILES: CN1CC[C@@](O)(C#Cc2cccc(-c3nccc(C(N)=O)n3)c2)C1=O [Example 32, 2-[3-[2-[(3R)-3-hydroxy-1-methyl-2-oxo-pyrrolidin-3-yl]ethynyl]phenyl] pyrimidine-4-carboxamide]
- Ki [1]: 0.22 nM
- IC50 [2]: 244 nM
- IC50 [3]: > 20000 nM

SMILES: CN1CC[C@@](O)(C#Cc2cccc(-c3nc(C(N)=O)cc(-c4ccnn4C)n3)c2)C1=O [Example 33, 2-[3-[2-[(3R)-3-hydroxy-1-methyl-2-oxo-pyrrolidin-3-yl]ethynyl]phenyl]-6-(2-methylpyrazol-3-yl) pyrimidine-4-carboxamide]
- Ki [1]: < 0.05 nM
- IC50 [2]: 36.3 nM
- IC50 [3]: > 28000 nM

SMILES: CN1CC[C@@](O)(C#Cc2cccc(-c3nc4c(c(C(N)=O)n3)CCCC4)c2)C1=O [Example 34, 2-[3-[2-[(3R)-3-hydroxy-1-methyl-2-oxo-pyrrolidin-3-yl]ethynyl]phenyl]-5,6,7,8-tetrahydroquinazoline-4-carboxamide]
- Ki [1]: 1.42 nM
- IC50 [2]: 138 nM
- IC50 [3]: > 20000 nM

SMILES: CN1CC[C@@](O)(C#Cc2cccc(-c3nc4c(c(C(N)=O)n3)CC(C)(C)CC4)c2)C1=O [Example 35, 2-[3-[2-[(3R)-3-hydroxy-1-methyl-2-oxo-pyrrolidin-3-yl]ethynyl]phenyl]-6,6-dimethyl-7,8-dihydro-5H-quinazoline-4-carboxamide]
- Ki [1]: 2.23 nM
- IC50 [2]: 386 nM
- IC50 [3]: > 20000 nM

SMILES: CN1CC[C@@](O)(C#Cc2cccc(-c3nc(C(N)=O)nc4ccsc34)c2)C1=O [Example 36, 4-[3-[2-[(3R)-3-hydroxy-1-methyl-2-oxo-pyrrolidin-3-yl]ethynyl]phenyl]thieno[3,2-d]pyrimidine-2-carboxamide]
- Ki [1]: 0.184 nM
- IC50 [2]: 314 nM
- IC50 [3]: > 20000 nM

SMILES: CN1CC[C@@](O)(C#Cc2cccc(-c3nc(C(N)=O)c4sccc4n3)c2)C1=O [Example 37, 2-[3-[2-[(3R)-3-hydroxy-1-methyl-2-oxo-pyrrolidin-3-yl]ethynyl]phenyl]thieno[3,2-d]pyrimidine-4-carboxamide]
- Ki [1]: 0.12 nM
- IC50 [2]: 13.9 nM
- IC50 [3]: > 20000 nM

SMILES: CN1CC[C@@](O)(C#Cc2cccc(-c3nc4c(c(C(N)=O)n3)CCC4)c2)C1=O [Example 38, 2-[3-[2-[(3R)-3-hydroxy-1-methyl-2-oxo-pyrrolidin-3-yl]ethynyl]phenyl]-6,7-dihydro-5H-cyclopenta [d]pyrimidine-4-carboxamide]
- Ki [1]: 0.19 nM
- IC50 [2]: 49.1 nM
- IC50 [3]: > 20000 nM
